This is an account of results in US7604949B2, “Methods and compositions that affect melanogenesis” (New York University, priority 1999, dated 2009).

One assay relates to B16 melanoma cells. As to the kind of experiment: Melanin content after ATPase inhibitor treatment, B16. Format: cell-based, mouse. The following applies: 36 hours. As for the experimental part: (§1) Wild type melan-a (a/a, P/P), an immortalized melanocyte line derived from C57BL6J mice; melan-p1 melanocytes (a/a, p^cp/p^25H), an immortalized line derived from p-null mice; melan-p1 (P10), a melan-p1 line stably transfected with an expression plasmid carrying the pink-eyed dilution gene; B16, an amelanotic mouse melanoma cell line; and B16F10, a slightly pigmented mouse melanoma cell line, were used in this study.
(§2) Cells were cultured in RMPI-1640 (Sigma, St. Louis, Mo.) supplemented with 10% fetal calf serum, 5% sodium pyruvate, 5% glutamate, 5 units/ml penicillin, 5 μg/ml streptomycin, 1% non-essential amino acids and 200 nM 12-O-tetradecanoyl phorbol 13-acetate for 24 hours The medium was than replaced with RPMI containing either 0, 1, 2 or 2.5 μM bafilomycin A1 (Sigma, St. Louis, Mo.) or 0, 0.5 or 1.0 μM concanamycin A (Sigma, St. Louis, Mo.). […] The supernatant was removed and protein content determined using a protein assay kit (BioRad, Richmond, Calif.).
(§3) The melanin content in the pellet was determined following removal of the supernatant Each sample was treated with 0.5 ml ethanol:ether (1:1), vortexed and incubated at room temperature for 10 minutes. […] The sample was then transferred to a 96-well plate and the optical density was read at 490 nm. […]

The subject of assay [1] is Melan-a wild type melanocytes. Nature of the assay: Melanin content after ATPase inhibitor treatment, Melan-a. Format: cell-based, mouse. The note with it: 36 hours. As for the experimental part:
as §1, §2, §3

Another assay concerns the target p-glycoprotein ATPase (Cricetulus griseus, UniProt P21448). The following applies: micromolar concentrations; cited from earlier work.
The test system of the next assay is B16F10 melanoma cells. Nature of the assay: Melanin content after ATPase inhibitor treatment, B16F10. The note with it: 36 hours. Format: cell-based, mouse. As for the experimental part:
as §1, §2, §3

Another assay relates to Melan-p (P10) cells. As to the kind of experiment: Melanin content after ATPase inhibitor treatment, Melan-p (P10). It is filed as cell-based, mouse. The following applies: 36 hours. Here is the method:
as §1, §2, §3

Assay [2] concerns Melan-p p-null melanocytes. Nature of the assay: Melanin content after ATPase inhibitor treatment, Melan-p. It is filed as cell-based, mouse. The following applies: 36 hours. As for the experimental part:
as §1, §2, §3

For assay [3], the system named is amelanotic melanoma cells that express tyrosinase. The note with it: nanomolar concentrations; cited from earlier work.
In assay [4] the target is T1, tyrosinase (Mus musculus, UniProt P11344).
T1 sequence (P11344 19-533): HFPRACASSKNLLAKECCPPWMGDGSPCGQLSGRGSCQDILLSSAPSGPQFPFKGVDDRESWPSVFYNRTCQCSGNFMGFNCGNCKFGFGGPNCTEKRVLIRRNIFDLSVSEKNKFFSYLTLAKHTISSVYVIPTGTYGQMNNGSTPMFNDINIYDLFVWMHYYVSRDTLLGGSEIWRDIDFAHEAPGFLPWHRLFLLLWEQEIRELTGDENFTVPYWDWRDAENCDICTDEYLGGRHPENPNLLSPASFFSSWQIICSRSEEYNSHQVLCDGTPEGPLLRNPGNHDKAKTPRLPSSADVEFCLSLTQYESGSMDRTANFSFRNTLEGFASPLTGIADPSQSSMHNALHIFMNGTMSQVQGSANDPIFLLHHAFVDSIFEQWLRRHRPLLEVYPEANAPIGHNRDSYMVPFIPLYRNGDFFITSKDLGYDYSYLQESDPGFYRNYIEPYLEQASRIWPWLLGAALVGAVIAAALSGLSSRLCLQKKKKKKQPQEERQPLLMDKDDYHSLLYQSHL
Nature of the assay: Tyrosinase activity of melan-a cell extracts (radiometric tyrosine hydroxylase assay). It is filed as cell-based. The following applies: melan-a cells, 48 hours, vs untreated.

Assay [5] has as its target T1, tyrosinase. Nature of the assay: Tyrosinase activity of extracts of COS cells transfected with tyrosinase-encoding gene alone (V+T). Format: cell-based. Also noted: expressed in transfected cells; host or cells: COS cells (monkey kidney). The following applies: vs untreated. The source says: (§4) Expression vectors were constructed to express P protein and tyrosinase genes in cultured cells. Specifically, the coding sequence for tyrosinase was removed as a HindIII-EcoRI fragment from clone TYBS (Yokohama et al., 1990, Nucl. Acids. Res. 18:7293-7298) and cloned into the HindIII/EcoRI sites of pcDNA I/lamp (Invitrogen, Calif.). Coding sequence for the P protein was removed as a BamHI-EcoRI fragment from MC2701 (Gardner et al., 1992, supra) and cloned into the BamHI/EcoRV sites of pcDNA3 and pcDNA3.1/V5/His-TOPO (Invitrogen, Calif.). COS cells were transfected with the pcDNA1-based plasmids and FuGENE™ 6 (Roche Molecular Biochemicals, Indianapolis, Ind.) as transfection agents for 48 hours. Cells were transformed with: (i) the vector alone; (ii) the vector carrying a tyrosinase-encoding gene; (iii) the vector carrying a P protein-encoding gene; or (iv) vectors carrying a tyrosinase-encoding gene and a P protein-encoding gene. Transformed cells were washed and extracted as above. Tyrosinase activity was then measured as above. Tyrosinase assays were performed on 60 micrograms of cell protein.
(§5) The tyrosinase activity of cell extracts was determined as above.

The target of a further assay is T2, P protein (Mus musculus, UniProt Q62052).
T2 construct: expressed in transfected cells; host or cells: COS cells (monkey kidney), co-transfected with the tyrosinase vector
T2 sequence (Q62052 1-833): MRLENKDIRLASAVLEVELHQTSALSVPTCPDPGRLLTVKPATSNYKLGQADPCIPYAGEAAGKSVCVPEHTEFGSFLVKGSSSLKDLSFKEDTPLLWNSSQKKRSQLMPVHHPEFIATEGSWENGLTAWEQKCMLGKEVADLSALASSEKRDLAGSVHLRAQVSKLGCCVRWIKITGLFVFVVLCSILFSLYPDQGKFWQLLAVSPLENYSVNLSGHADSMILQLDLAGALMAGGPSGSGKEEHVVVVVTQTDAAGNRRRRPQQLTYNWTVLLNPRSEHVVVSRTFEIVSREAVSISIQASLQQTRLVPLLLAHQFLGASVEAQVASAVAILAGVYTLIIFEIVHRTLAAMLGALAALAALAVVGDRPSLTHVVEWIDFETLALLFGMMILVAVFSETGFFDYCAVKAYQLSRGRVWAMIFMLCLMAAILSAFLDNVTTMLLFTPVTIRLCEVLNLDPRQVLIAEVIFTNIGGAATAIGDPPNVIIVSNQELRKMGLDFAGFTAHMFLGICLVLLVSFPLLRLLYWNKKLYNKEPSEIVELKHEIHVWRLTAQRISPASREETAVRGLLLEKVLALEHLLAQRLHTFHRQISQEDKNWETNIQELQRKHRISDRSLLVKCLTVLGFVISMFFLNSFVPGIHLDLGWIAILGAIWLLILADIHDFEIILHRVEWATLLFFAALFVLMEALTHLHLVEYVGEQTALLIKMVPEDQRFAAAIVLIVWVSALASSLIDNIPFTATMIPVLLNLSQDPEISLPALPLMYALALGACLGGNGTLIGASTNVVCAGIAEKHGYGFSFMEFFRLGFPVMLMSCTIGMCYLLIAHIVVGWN
Nature of the assay: Tyrosinase activity of extracts of COS cells transfected with tyrosinase-encoding and P protein-encoding genes (T+P). The following applies: vs untreated. It is filed as cell-based.
Excerpt: as §4, §5

Assay [6] has as its system late endosomal/lysosomal cholesterol trafficking. The note with it: cited from earlier work.
Where [7] appears, read: bafilomycin A1 0, 1, 2 or 2.5 μM.
The mark [8] stands for this setting: concanamycin A 0, 0.5 or 1.0 μM.

p-glycoprotein ATPase, sequence (P21448 whole entry): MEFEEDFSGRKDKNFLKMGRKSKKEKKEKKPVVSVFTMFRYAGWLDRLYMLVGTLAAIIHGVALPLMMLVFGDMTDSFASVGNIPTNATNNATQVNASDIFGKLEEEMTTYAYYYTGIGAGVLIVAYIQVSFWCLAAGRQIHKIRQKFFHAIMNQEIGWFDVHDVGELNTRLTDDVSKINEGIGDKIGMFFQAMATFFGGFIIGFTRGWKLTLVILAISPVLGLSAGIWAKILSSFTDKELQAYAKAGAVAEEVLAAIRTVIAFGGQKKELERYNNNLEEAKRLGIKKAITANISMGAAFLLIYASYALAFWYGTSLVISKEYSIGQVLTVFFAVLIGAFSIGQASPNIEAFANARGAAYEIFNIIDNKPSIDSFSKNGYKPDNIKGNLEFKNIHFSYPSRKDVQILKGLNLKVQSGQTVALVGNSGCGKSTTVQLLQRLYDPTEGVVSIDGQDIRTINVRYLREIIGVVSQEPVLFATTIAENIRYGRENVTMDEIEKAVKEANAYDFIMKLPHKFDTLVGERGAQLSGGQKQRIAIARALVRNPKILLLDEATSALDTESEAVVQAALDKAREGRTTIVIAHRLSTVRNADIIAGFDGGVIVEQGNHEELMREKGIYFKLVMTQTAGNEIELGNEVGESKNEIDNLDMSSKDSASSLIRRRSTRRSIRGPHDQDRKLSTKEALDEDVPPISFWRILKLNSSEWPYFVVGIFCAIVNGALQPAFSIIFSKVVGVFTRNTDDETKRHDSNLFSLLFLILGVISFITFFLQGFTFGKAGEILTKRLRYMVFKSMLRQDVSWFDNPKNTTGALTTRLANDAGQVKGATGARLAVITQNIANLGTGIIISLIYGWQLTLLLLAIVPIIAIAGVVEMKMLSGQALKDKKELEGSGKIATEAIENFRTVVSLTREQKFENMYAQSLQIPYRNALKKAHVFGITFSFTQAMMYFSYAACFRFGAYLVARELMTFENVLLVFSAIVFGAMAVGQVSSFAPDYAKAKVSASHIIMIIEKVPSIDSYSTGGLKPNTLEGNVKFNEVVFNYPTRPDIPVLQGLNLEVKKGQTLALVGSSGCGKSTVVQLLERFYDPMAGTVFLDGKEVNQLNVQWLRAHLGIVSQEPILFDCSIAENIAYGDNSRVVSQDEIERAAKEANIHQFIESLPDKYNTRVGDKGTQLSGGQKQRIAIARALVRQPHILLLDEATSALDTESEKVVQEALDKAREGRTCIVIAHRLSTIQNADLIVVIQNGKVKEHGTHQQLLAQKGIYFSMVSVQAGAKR

As to `CO/C1=C\C(C)=C\[C@@H](C)[C@@H](O)[C@@H](C)C/C(C)=C/C=C/[C@H](OC)[C@@H]([C@@H](C)[C@@H](O)[C@H](C)[C@@]2(O)C[C@@H](O)[C@H](C)[C@@H](C(C)C)O2)OC1=O` [bafilomycin A1], the melanin content result is reported as “does not respond” with B16 melanoma cells (B16, bafilomycin A1 0, 1, 2 or 2.5 μM); “initially increases in the presence of μM concentrations of bafilomycin A1 but drops at the highest concentration tested” in assay [1] (setting [7]); “initially increases in the presence of μM concentrations of bafilomycin A1 but drops at the highest concentration tested” in the assay with Melan-p (P10) cells (setting [7]). The “inhibition of p-glycoprotein ATPase activity” value on p-glycoprotein ATPase is “inhibit p-glycoprotein ATPase activity at micromolar concentrations”. The pigmentation entry in the assay on B16F10 melanoma cells (B16F10, bafilomycin A1 0, 1, 2 or 2.5 μM) is given as “demonstrates increasing pigmentation which diminishes at higher concentrations”. The melanin levels result in assay [2] (setting [7]) is given as “increased with an increase in bafilomycin A1 concentration”. The activation of melanogenesis entry in assay [3] is reported as “activate melanogenesis”.

As to `CN1[C@@H]2CC[C@H]1C[C@@H](OC(c1ccccc1)c1ccccc1)C2` [benztropine], the “tyrosinase activity of cell extracts” value at tyrosinase [4] (10 micromolar compound) is given as “greater tyrosinase activities than untreated cells”. For the same compound, the “tyrosinase activity of extracts, cells expressing only tyrosinase” value at tyrosinase [5] (10 micromolar compound) is listed as “did not have an appreciable effect”. The “tyrosinase activity of extracts, cells expressing both P protein and tyrosinase” value on P protein (10 micromolar compound) is “did not have an appreciable effect”.

On to `C/C=C/[C@H]1O[C@@](O)([C@@H](C)[C@H](O)[C@H](C)[C@H]2OC(=O)/C(OC)=C/C(C)=C/[C@@H](C)[C@@H](O)[C@@H](CC)[C@@H](O)[C@H](C)C/C(C)=C/C=C/[C@@H]2OC)C[C@@H](O[C@H]2C[C@@H](O)[C@H](OC(N)=O)[C@@H](C)O2)[C@@H]1C` [concanamycin A], for which the melanin content result is listed as “does not respond” with B16 melanoma cells (B16, concanamycin A 0, 0.5 or 1.0 μM); “is decreased” in assay [1] (setting [8]); “is decreased” in the assay on Melan-p (P10) cells (setting [8]). In addition, on p-glycoprotein ATPase, the “inhibition of p-glycoprotein ATPase activity” value is “inhibit p-glycoprotein ATPase activity at micromolar concentrations”. Besides, the pigmentation entry in the assay with B16F10 melanoma cells (B16F10, concanamycin A 0, 0.5 or 1.0 μM) is listed as “demonstrates increasing pigmentation which diminishes at higher concentrations”. For the same compound, the melanin levels result in assay [2] (setting [8]) was “increase with an increase in concanamycin A concentration”. The activation of melanogenesis result in assay [3] is on record as “activate melanogenesis”.

As to `C/C=C/[C@H]1O[C@@](O)([C@@H](C)[C@H](O)[C@H](C)[C@H]2OC(=O)/C(OC)=C/C(C)=C/[C@@H](C)[C@@H](O)[C@@H](C)[C@@H](O)[C@H](C)C/C(C)=C/C=C/[C@@H]2OC)C[C@@H](O[C@H]2C[C@@H](O)[C@H](OC(N)=O)[C@@H](C)O2)[C@@H]1C` [concanamycin B], the “inhibition of p-glycoprotein ATPase activity” value at p-glycoprotein ATPase is “inhibit p-glycoprotein ATPase activity at micromolar concentrations”.

In the case of `O=C(O)/C=C\C(=O)O.O=[N+]([O-])c1ccc2nc(N3CCNCC3)ccc2c1` [nitroquipazine, 6-nitro-2-(1-piperazinyl)-quinoline maleate], the “tyrosinase activity of cell extracts” value at tyrosinase [4] (30 micromolar compound) is given as “greater tyrosinase activities than untreated cells”. Also, the “tyrosinase activity of extracts, cells expressing only tyrosinase” value on tyrosinase [5] (30 micromolar compound) was “lower tyrosinase activity”. Further, the “tyrosinase activity of extracts, cells expressing both P protein and tyrosinase” value on P protein (30 micromolar compound) was “lower tyrosinase activity”.

With `CC(=O)[C@H]1CC[C@H]2[C@@H]3CCC4=CC(=O)CC[C@]4(C)[C@H]3CC[C@]12C` [progesterone], in assay [6], the “cholesterol movement from the PM to the ER, from the late endosome/lysosome to the ER and to the PM” value is recorded as “inhibit cholesterol movement”.

As to `CCCCCCCCCCCCC/C=C/[C@@H](O)[C@@H](N)CO` [sphingosine], in [6], the “cholesterol movement from the PM to the ER, from the late endosome/lysosome to the ER and to the PM” value was “inhibit cholesterol movement”.
